Counter-ions that a name gives are not always drawn.
Test system: murine UVB-induced epidermal hyperplasia model
Assay: Murine UVB-induced epidermal hyperplasia model: epidermis thickness (H&E histology)
Assay type: in vivo, SKH1 mice
Conditions: UVB 120 mJ/cm^2
Experimental: The back skin of the SKH1 mice was exposed to 120 mJ/cm^2 UVB using the Biospectra system equipped with UVB sunlamps with a maximum emission peak at 312 nm. Irradiations were performed under isoflurane gaseous anesthesia. Vehicle (PEG400/EtOH/PHY (30/20/50) p/p) or brimonidine at 0.2% or 2% was administered by topical route (100 μl) on a 10 cm^2-area on the back using a micropipette. The area is located on the upper part of the back to prevent the animals from licking themselves. […]
One hour after the third topical treatment and one hour before euthanasia, mice received an i.p. injection of 5-ethynyl-2′-deoxyuridine (EdU) at 100 mg/kg. […] For epidermal thickness, two sections per animal (7 μm) were stained in H&E. Skin histology and the epidermis thickness were analyzed using image analysis (mScope 3.9, Aurora mScope) on scanned slide pictures (NanoZoomer C9600-12, Hamamatsu Photonics K.K). […] Nuclei were also stained with DAPI (5 mg/ml) diluted in Vectashield Hard Set Mounting medium for fluorescence ref: 1-1400 Vector Laboratories). The number of keratinocyte stained with Alexa Fluor® 594 was counted from digital images (NanoZoomer C9600-12, Hamamatsu Photonics K.K) and the epidermis length of each section determined using an in-house dedicated tool. […]

Brc1c(NC2=NCCN2)ccc2nccnc12 [brimonidine tartrate, (5-Bromo-quinoxalin-6-yl)-(4,5-dihydro-1H-imidazol-2-yl)-amine (Brimonidine)]
inhibition of acanthosis (epidermis thickness) (0.2% topical, pre-treatment): no effect | inhibition of acanthosis (epidermis thickness) (2% topical, pre-treatment (1 h before UV irradiation, then twice more at 23 hours apart)): −23%
